The values below come from patent US7420100B2, “Methods and compositions relating to HDAC 4 and 5 regulation of cardiac gene expression” (Board of Regents, The University of Texas System, priority 1999, dated 2008).

One assay concerns BZLF1. The following applies: cited from earlier work.
The subject of assay [1] is GAL4-MEF2C fusion protein. Put plainly: activation of GAL4-MEF2C fusion protein in cardiomyocytes. To be noted: stimulation of cardiomyocytes. The assay is classed as cell-based, rat. The procedure: Preparation of primary rat cardiomyocytes. Cardiomyocyte cultures are prepared by dissociation of 1-day old neonatal rat hearts and were differentially plated to remove fibroblasts. To induce the hypertrophic response, AngII and PE are added to cardiomyocyte cultures at 10 nM and 10 μM, respectively, in serum-free M199 media. The culture media containing either agonist is changed every 12 hours for a period of 72 hours.
In light of the ability of MEF2 to respond to calcium-dependent signal transduction pathways in T cells, the inventors have investigated whether the same pathways also activate MEF2 in cardiomyocytes. […] When the C-terminus of MEF2C, which contains the transcription activation domains (TADs), but lacks the MADS and MEF2 domains required for DNA binding and dimerization, is fused to the DNA binding domain of the yeast transcription factor GAL4, the resulting GAL4-MEF2C fusion protein retains sensitivity to calcineurin and CaMKIV. This GAL4-MEF2C fusion protein is also activated by stimulation of cardiomyocytes with the hypertrophic agonist phenylephrine (PE).

The test system of a further assay is cultured cardiomyocytes. To be noted: α-adrenergic stimulation and Ca2+ channel agonists; cited from earlier work.
The test system of assay [2] is hypertrophic response to endothelin-1. The following applies: in vitro; cited from earlier work.
The subject of assay [3] is HDAC 5-green fluorescent protein (GFP) chimeric molecule. Put plainly: subcellular distribution of HDAC 5-GFP in CaMKI-expressing cells exposed to leptomycinB. The assay is classed as cell-based. The following applies: CaMKI-expressing cells treated with leptomycinB. The source says: In principle, nuclear exclusion of HDAC 5 could result from inhibition of nuclear import or stimulation of nuclear export. To distinguish between these possibilities, the subcellular distribution of an HDAC 5-green fluorescent protein (GFP) chimeric molecule was monitored in cells exposed to leptomycinB, a fungal toxin that blocks nuclear export. In CaMK1 expressing cells, HDAC 5 is localized to the cytoplasm.

With cyclosporin A [CsA], in the assay with BZLF1, the “effect on BZLF1 transcription” value is “inhibited”. In the case of `CNC[C@H](O)c1cccc(O)c1` [phenylephrine], the “activation of GAL4-MEF2C fusion protein” value in assay [1] is “activated”. Turning to `NCCCCCCNS(=O)(=O)c1cccc2c(Cl)cccc12` [W-7], the effect on hypertrophy result in the assay on cultured cardiomyocytes is on record as “prevents hypertrophy”.

Consider `COc1ccc(S(=O)(=O)N(CCO)c2ccccc2CN(C)C/C=C/c2ccc(Cl)cc2)cc1` [KN-93], for which the “effect on hypertrophic response to endothelin-1” value in assay [2] is “can block the hypertrophic response”. Turning to `CCC(=C/[C@H](C)C/C=C/C(C)=C/[C@@H](C)C(=O)[C@@H](C)[C@H](O)[C@@H](C)C/C(C)=C/C(=O)O)/C=C/[C@@H]1OC(=O)C=C[C@@H]1C` [leptomycinB], in assay [3], the “subcellular localization of HDAC 5” value is “translocation of HDAC 5 from the cytoplasm to the nucleus” and the “time course of HDAC 5 translocation from cytoplasm to nucleus” value was determined as 4 h.
